Laboratory results as given in article PMC5789083, “Mechanisms driving the antibacterial and antibiofilm properties of Hp1404 and its analogue peptides against multidrug-resistant Pseudomonas aeruginosa” (Scientific Reports, 2018).
Like-named read-outs stand apart in the source and are kept apart here. Where no end group is shown, it is not given here.

Key:
[1] = tested on: Pseudomonas aeruginosa and MRPA strains; test: microbe, parasite or virus in culture; format: cell-based; details: broth micro-dilution, 37 °C, 18–24 h
From the text: Gram-negative (Pseudomonas aeruginosa ATCC 27853) bacterial strains were obtained from the ATCC (American Type Culture Collection; Manassas, VA, USA). Multidrug-resistant strains (Pseudomonas aeruginosa 138, 431, 434, 557, 559, 778, 1034, 1162, 3290, 3399, 3592, 3904, 4007, 4319, 4891, 5018, and 671973) were obtained from the Chonnam National University Hospital (Gwangju, South Korea).
(§1) We examined the activity of each peptide against both pseudomonas aeruginosa and multidrug-resistant strains. The minimal inhibitory concentrations (MICs) of peptides were determined using the broth micro-dilution assay as described previously. Briefly, bacterial strains were cultivated with shaking overnight at 37 °C. The next day, they were diluted to a density of 2 × 10^5 CFU/mL with growth medium. Peptides were serially diluted with 10 mM sodium phosphate buffer. 50 µL bacterial aliquots were mixed with an equal volume of peptide solution, and incubated at 37 °C for 18–24 h. Inhibition of bacterial growth was determined by measuring the absorbance at 600 nm using a Versa Max microplate reader (Molecular Devices, Sunnyvale, CA, USA). The test was performed in triplicate.

P. aeruginosa 27853 = format: cell-based, Pseudomonas aeruginosa
Protocol: as §1
The effects of various cations on the antibacterial activities of the parental and analogue peptides against P. aeruginosa 27853 were evaluated as previously described. Bacteria was treated with peptides at a final concentration 25 µM in the presence of physiological salts such as NaCl (50 mM, 100 mM, and 150 mM), CaCl2 (1.25 mM, 2.5 mM, and 5 mM), or MgCl2 (0.5 mM, 1 mM, and 2 mM). The MIC values were determined as described above.

[2] = tested on: P. aeruginosa strains (biofilm formation); format: cell-based, Pseudomonas aeruginosa; details: 24 h, 37 °C, crystal violet OD595
Protocol: To evaluate the ability of bacterial strains to form biofilms either in the absence or presence of peptides, antibiotic-susceptible P. aeruginosa (ATCC 27853), and various strains of MDR P. aeruginosa were cultured in nutrient broth (NB). […]. The biofilms were fixed with 100% methanol for 15 min, stained with 0.1% crystal violet (CV) for 1 h, and rinsed three times with distilled water (dH2O). After the addition of 95% ethanol, biofilm mass was quantified by measuring OD at 595 nm using a Versa-Max microplate ELISA reader (Molecular Devices). Results were expressed as the percentage of biofilm formed with respect to the control. […] All experiments were performed at least in triplicate.

HaCaT cells = test: Cytotoxicity, MTT assay; format: cell-based, human; details: 50 µM, 24 h
Protocol: We used the MTT assay to evaluate the toxicity of the peptides toward human skin epithelial cells (HaCaT) as previously described. Briefly, HaCaT cells were seeded at a density of 2 × 10^4 cells per well in 96-well microtiter plates in Dulbecco’s modified Eagle’s medium (DMEM) containing 10% foetal bovine serum (FBS) at 37 °C under 5% CO2 atmosphere. The next day, peptides were added to each well at various final concentrations (higher concentration of 200 µM). After 24 h incubation, culture supernatants were removed. 0.5 mg/mL MTT was added to each well, and the plates were incubated for 4 h at 37 °C. The medium was replaced by dimethyl sulfoxide (DMSO) to dissolve the formazan crystals formed in the wells. The absorbance at 570 nm was measured using a Versa-Max microplate ELISA reader (Molecular Devices). The viability rate was calculated using the following formula: Cell viability (%) = (absorbance of treated sample)/(absorbance of control) × 100.

[3] = P. aeruginosa 138 (multidrug-resistant), triplicate
[4] = P. aeruginosa 431 (multidrug-resistant), triplicate
[5] = P. aeruginosa 434 (multidrug-resistant), triplicate
[6] = P. aeruginosa 557 (multidrug-resistant), triplicate
[7] = P. aeruginosa 559 (multidrug-resistant), triplicate
[8] = P. aeruginosa 778 (multidrug-resistant), triplicate
[9] = P. aeruginosa 1034 (multidrug-resistant), triplicate
[10] = P. aeruginosa 1162 (multidrug-resistant), triplicate
[11] = P. aeruginosa 3290 (multidrug-resistant), triplicate
[12] = P. aeruginosa 3399 (multidrug-resistant), triplicate
[13] = P. aeruginosa 3543 (multidrug-resistant), triplicate
[14] = P. aeruginosa 3592 (multidrug-resistant), triplicate
[15] = P. aeruginosa 3904 (multidrug-resistant), triplicate
[16] = P. aeruginosa 4007 (multidrug-resistant), triplicate
[17] = P. aeruginosa 4319 (multidrug-resistant), triplicate
[18] = P. aeruginosa 4891 (multidrug-resistant), triplicate
[19] = P. aeruginosa 5018 (multidrug-resistant), triplicate
[20] = P. aeruginosa 671973 (multidrug-resistant), triplicate
[21] = P. aeruginosa ATCC 27853, 2 × 10^5 CFU/mL, A600, triplicate
[22] = P. aeruginosa 27853, 5 × 10^5 CFU/mL, 0.2% glucose

| Substance | MIC [1, 3] [µM] | MIC [1, 4] [µM] | MIC [1, 5] [µM] | MIC [1, 6] [µM] | MIC [1, 7] [µM] | MIC [1, 8] [µM] | MIC [1, 9] [µM] | MIC [1, 10] [µM] | MIC [1, 11] [µM] | MIC [1, 12] [µM] | MIC [1, 13] [µM] | MIC [1, 14] [µM] | MIC [1, 15] [µM] | MIC [1, 16] [µM] | MIC [1, 17] [µM] | MIC [1, 18] [µM] | MIC [1, 19] [µM] | MIC [1, 20] [µM] | MIC [1, 21] [µM] | MIC (P. aeruginosa 27853; CaCl2 1.25 mM) [µM] | other results |
| --- | --- | --- | --- | --- | --- | --- | --- | --- | --- | --- | --- | --- | --- | --- | --- | --- | --- | --- | --- | --- | --- |
| Buforin2 [reference compound] | 12.5 | 6.25 | 6.25 | 6.25 | 12.5 | 12.5 | 6.25 | 12.5 | 6.25 | 12.5 | 12.5 | 3.13 | 6.25 | 12.5 | 12.5 | >25 | 12.5 | 3.13 | 25 | – | – |
| ILGKLWEGVKSI-NH2 [Hp1404-T1] | >25 | >25 | >25 | >25 | >25 | >25 | >25 | >25 | >25 | >25 | >25 | >25 | >25 | >25 | >25 | >25 | >25 | >25 | >25 | – | – |
| ILKKLLEGVKSI-NH2 [Hp1404-T1b] | >25 | >25 | 25 | >25 | >25 | >25 | >25 | >25 | >25 | >25 | >25 | 25 | >25 | >25 | >25 | >25 | >25 | >25 | >25 | – | – |
| ILKKLLKGVKSI-NH2 [Hp1404-T1c] | 25 | 12.5 | 6.25 | 25 | 25 | 6.25 | 6.25 | 3.13 | >25 | 3.13 | >25 | 6.25 | 6.25 | 12.5 | 6.25 | 6.25 | 3.13 | 6.25 | 3.13 | >25 | MIC (P. aeruginosa 27853; CaCl2 2.5 mM): >25 µM; MIC (P. aeruginosa 27853; CaCl2 5 mM): >25 µM; MIC (P. aeruginosa 27853; MgCl2 0.5 mM): 12.5 µM; MIC (P. aeruginosa 27853; MgCl2 1 mM): 12.5 µM; MIC (P. aeruginosa 27853; MgCl2 2 mM): >25 µM; MIC (P. aeruginosa 27853; NaCl 50 mM): >25 µM; MIC (P. aeruginosa 27853; NaCl 100 mM): >25 µM; MIC (P. aeruginosa 27853; NaCl 150 mM): >25 µM; MBIC ([2]; P. aeruginosa 434): 50 µM; MBIC ([2]; P. aeruginosa 559): 25 µM; MBIC ([2]; P. aeruginosa 778): 25 µM; MBIC ([2]; P. aeruginosa 1034): 25 µM; MBIC ([2]; P. aeruginosa 1162): 12.5 µM; MBIC ([2]; P. aeruginosa 3399): 25 µM; MBIC ([2]; P. aeruginosa 3543): >50 µM; MBIC ([2]; P. aeruginosa 4007): >50 µM; MBIC [2, 22]: 25 µM; survival rate of HaCaT cells (HaCaT cells): 51% |
| ILKKLLKKVKSI-NH2 [Hp1404-T1d] | 12.5 | 3.13 | 3.13 | 3.13 | 12.5 | 3.13 | 3.13 | 1.56 | 6.25 | 1.56 | 25 | 3.13 | 6.25 | 6.25 | 3.13 | 3.13 | 1.56 | 1.56 | 1.56 | 12.5 | MIC (P. aeruginosa 27853; CaCl2 2.5 mM): 25 µM; MIC (P. aeruginosa 27853; CaCl2 5 mM): >25 µM; MIC (P. aeruginosa 27853; MgCl2 0.5 mM): 3.13 µM; MIC (P. aeruginosa 27853; MgCl2 1 mM): 6.25 µM; MIC (P. aeruginosa 27853; MgCl2 2 mM): 12.5 µM; MIC (P. aeruginosa 27853; NaCl 50 mM): 12.5 µM; MIC (P. aeruginosa 27853; NaCl 100 mM): 12.5 µM; MIC (P. aeruginosa 27853; NaCl 150 mM): 25 µM; MBIC ([2]; P. aeruginosa 434): 12.5 µM; MBIC ([2]; P. aeruginosa 559): 12.5 µM; MBIC ([2]; P. aeruginosa 778): 12.5 µM; MBIC ([2]; P. aeruginosa 1034): 12.5 µM; MBIC ([2]; P. aeruginosa 1162): 6.25 µM; MBIC ([2]; P. aeruginosa 3399): 25 µM; MBIC ([2]; P. aeruginosa 3543): >50 µM; MBIC ([2]; P. aeruginosa 4007): 50 µM; MBIC [2, 22]: 12.5 µM; survival rate of HaCaT cells (HaCaT cells): 33% |
| ILKKLWEGVKSI-NH2 [Hp1404-T1a] | >25 | 25 | 25 | >25 | >25 | >25 | >25 | >25 | >25 | 25 | >25 | 12.5 | 25 | >25 | >25 | 25 | >25 | 25 | >25 | – | – |
